Experiment: HaCaT cell viability by CCK-8 assay
Assay type: cell-based
Conditions: human, hacat cells
Description: (1) Reagents: compound 1: a compound shown by Compound 1 in Formula (I); compound 2: a compound shown by Compound 2 in Formula (I); Dulbecco's Modified Eagle Medium (DMEM) high-glucose medium: Wuhan Pricella Biotechnology Co., Ltd.; South American fetal bovine serum (FBS) and trypsin: Gibco, USA; penicillin-streptomycin: Hyclone, USA; and CCK-8 kit: Beyotime.
(2) Instruments: CO2 incubator: HERA cell 240; and microplate reader: Thermo Fisher Scientific, USA.
The cultured HaCaT cells were counted under a microscope to be about 2×10^6 cells/mL, then inoculated in a 96-well plate at about 6×10^3 cells/well, and incubated overnight in a 37 °C and 5% CO2 incubator. After cells were adherent, a medium was removed, and 200 μL of each of complete media including compounds 1 and 2 at different concentrations (0.05 μg/mL, 0.1 μg/mL, 0.2 μg/mL, 0.5 μg/mL, 1 μg/mL, 2 μg/mL, 5 μg/mL, 10 μg/mL, and 20 μg/mL) was added to a corresponding well. The 0 μg/mL group was set as a blank control group. Three replicate wells were set for each treatment of the compounds 1 and 2. The plate was incubated in a CO2 incubator for 24 h. 20 μL of CCK-8 reagent was added to each well, and the plate was incubated in a CO2 incubator for 1 h and then placed in the microplate reader to read the absorbance at 450 nm. The test was repeated 3 times, and a mean value was taken. The measured absorbance was substituted into a cell viability calculation formula to calculate the cell viability.
The data of the present disclosure was processed with the Excel and Graphpad software. The experimental data was tested by one-way ANOVA. The post-hoc multiple comparison was conducted with the LSD. P<0.05 indicated a significant difference.

Structure (SMILES) | viability at 24 h (0.05 μg/mL) | viability at 24 h (0.10 μg/mL) | viability at 24 h (0.20 μg/mL) | viability at 24 h (0.50 μg/mL) | viability at 24 h (1.00 μg/mL) | viability at 24 h (2.00 μg/mL) | viability at 24 h (5.00 μg/mL) | viability at 24 h (10.00 μg/mL) | viability at 24 h (20.00 μg/mL)
N#CC[C@H](C1CCCC1)n1cc(-c2nc(Nc3ccc(C(=O)NCCCCNc4cccc5c4C(=O)N(C4CCC(=O)NC4=O)C5=O)cc3)nc3[nH]ccc23)cn1 (stereo partly drawn) [Compound 1] | 80.5% | 85.7% | 90.7% | 98.3% | 98.3% | 93.8% | 108% | 110% | 80.3%
CCS(=O)(=O)N1CC(CC#N)(n2cc(-c3nc(Nc4ccc(C(=O)NCCCCNc5cccc6c5C(=O)N(C5CCC(=O)NC5=O)C6=O)cc4)nc4[nH]ccc34)cn2)C1 (stereo not drawn) [Compound 2] | 95.5% | 95.6% | 106% | 113% | 101% | 107% | 124% | 120% | 93.3%

From patent US20260365655A1, “NEW USE OF JANUS KINASE (JAK)-DEGRADING AGENT BASED ON PROTEOLYSIS TARGETING CHIMERA (PROTAC)” (SHANGHAI SKIN DISEASE HOSPITAL, priority 2022, published 2026)
